# System: pale smartweed (Po)
# Experiment: Test Example 9: crop plant selectivity by upland field foliage treatment (wheat), herbicidal effects
# Type: in vivo
# Parameters: scale not given here
# Details: dose 1.6 g ai/10a, 14th day after treatment
# Summary of the method: (§1)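 Read-out: weed control and wheat injury, rated by a defined scoring standard 14 days after foliar application.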
row,SMILES,Herbicidal effects Po
1,Cn1c(C(F)(F)F)ccc(-c2cc(C(=O)OCCBr)c(Cl)cc2F)c1=O [1-134],5

# System: common lambsquarters (Ch)
# Experiment: as above
# Type: in vivo
# Parameters: scale not given here
# Details: dose 1.6 g ai/10a, 14th day after treatment
# Summary of the method: as §1
row,SMILES,Herbicidal effects Ch
1,Cn1c(C(F)(F)F)ccc(-c2cc(C(=O)OCCBr)c(Cl)cc2F)c1=O [1-134],5

# System: China jute (Ab)
# Experiment: as above
# Type: in vivo
# Parameters: scale not given here
# Details: dose 1.6 g ai/10a, 14th day after treatment
# Summary of the method: as §1
row,SMILES,Herbicidal effects Ab
1,Cn1c(C(F)(F)F)ccc(-c2cc(C(=O)OCCBr)c(Cl)cc2F)c1=O [1-134],5

# System: slender amaranth (Am)
# Experiment: as above
# Type: in vivo
# Parameters: scale not given here
# Details: dose 1.6 g ai/10a, 14th day after treatment
# Summary of the method: as §1
row,SMILES,Herbicidal effects Am
1,Cn1c(C(F)(F)F)ccc(-c2cc(C(=O)OCCBr)c(Cl)cc2F)c1=O [1-134],5

# System: barnyardgrass (Ec)
# Experiment: Test Example 1: herbicidal effects by paddy field soil treatment;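 further: grade of growth control; 5 = at least 90%; 4 = 70 to 90%; 3 = 50 to 70%; 2 = 30 to 50%; 1 = 10 to 30%; 0 = under 10%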
# Type: in vivo
# Details: 100 g of the active ingredient per 10 ares, 21st day after the application, index 0-5 of Table 47
# Summary of the method: (§2)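 Flooded paddy-soil pots (3 cm water) sown after puddling/leveling; treatment 100 g a.i./10 ares; greenhouse culture; herbicidal effect rated visually on a scoring scale at 21 d post-application.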
row,SMILES,Herbicidal effects Ec
1,Cn1c(C(F)(F)F)ccc(-c2cc(C(=O)OCCBr)c(Cl)cc2F)c1=O [1-134],5

# System: bulrush (Sc)
# Experiment: as above
# Type: in vivo
# Details: 100 g of the active ingredient per 10 ares, 21st day after the application, index 0-5 of Table 47
# Summary of the method: as §2
row,SMILES,Herbicidal effects Sc
1,Cn1c(C(F)(F)F)ccc(-c2cc(C(=O)OCCBr)c(Cl)cc2F)c1=O [1-134],5

# System: monochoria (Mo)
# Experiment: as above
# Type: in vivo
# Details: 100 g of the active ingredient per 10 ares, 21st day after the application, index 0-5 of Table 47
# Summary of the method: as §2
row,SMILES,Herbicidal effects Mo
1,Cn1c(C(F)(F)F)ccc(-c2cc(C(=O)OCCBr)c(Cl)cc2F)c1=O [1-134],5

# System: barnyardgrass (Ec)
# Experiment: Test Example 3: herbicidal effects by upland field foliage treatment
# Type: in vivo
# Parameters: scale not given here
# Details: 100 g of the active ingredient per 10 ares, evaluated on the 14th day after treatment
# Summary of the method: (§3)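 Scoring used a standard effect scale on the 14th day post-treatment, with plants held in a greenhouse throughout. Foliar application was made to weeds raised from seed in sand-filled pots for 2 weeks.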
row,SMILES,Herbicidal effects Ec
1,Cn1c(C(F)(F)F)ccc(-c2cc(C(=O)OCCBr)c(Cl)cc2F)c1=O [1-134],5

# System: Diaitaria ciliaris (Di)
# Experiment: as above
# Type: in vivo
# Parameters: scale not given here
# Details: 100 g of the active ingredient per 10 ares, evaluated on the 14th day after treatment
# Summary of the method: as §3
row,SMILES,Herbicidal effects Di
1,Cn1c(C(F)(F)F)ccc(-c2cc(C(=O)OCCBr)c(Cl)cc2F)c1=O [1-134],5

# System: pale smartweed (Po)
# Experiment: as above
# Type: in vivo
# Parameters: scale not given here
# Details: 100 g of the active ingredient per 10 ares, evaluated on the 14th day after treatment
# Summary of the method: as §3
row,SMILES,Herbicidal effects Po
1,Cn1c(C(F)(F)F)ccc(-c2cc(C(=O)OCCBr)c(Cl)cc2F)c1=O [1-134],5

# System: common lambsquarters (Ch)
# Experiment: as above
# Type: in vivo
# Parameters: scale not given here
# Details: 100 g of the active ingredient per 10 ares, evaluated on the 14th day after treatment
# Summary of the method: as §3
row,SMILES,Herbicidal effects Ch
1,Cn1c(C(F)(F)F)ccc(-c2cc(C(=O)OCCBr)c(Cl)cc2F)c1=O [1-134],5

# System: rice flatsedge (Ci)
# Experiment: as above
# Type: in vivo
# Parameters: scale not given here
# Details: 100 g of the active ingredient per 10 ares, evaluated on the 14th day after treatment
# Summary of the method: as §3
row,SMILES,Herbicidal effects Ci
1,Cn1c(C(F)(F)F)ccc(-c2cc(C(=O)OCCBr)c(Cl)cc2F)c1=O [1-134],5

# System: slender amaranth (Am)
# Experiment: as above
# Type: in vivo
# Parameters: scale not given here
# Details: 100 g of the active ingredient per 10 ares, evaluated on the 14th day after treatment
# Summary of the method: as §3
row,SMILES,Herbicidal effects Am
1,Cn1c(C(F)(F)F)ccc(-c2cc(C(=O)OCCBr)c(Cl)cc2F)c1=O [1-134],5

# System: barnyardgrass (Ec)
# Experiment: Test Example 2: herbicidal effects by upland field soil treatment;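 further: grade of growth control; 5 = at least 90%; 4 = 70 to 90%; 3 = 50 to 70%; 2 = 30 to 50%; 1 = 10 to 30%; 0 = under 10%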
# Type: in vivo
# Details: 100 g of the active ingredient per 10 ares, 21st day after the application, index 0-5 of Table 47
# Text: (§4) (Test on Herbicidal Effects by Upland Field Soil Treatment)
row,SMILES,Herbicidal effects Ec
1,Cn1c(C(F)(F)F)ccc(-c2cc(C(=O)OCCBr)c(Cl)cc2F)c1=O [1-134],5

# System: pale smartweed (Po)
# Experiment: as above
# Type: in vivo
# Details: 100 g of the active ingredient per 10 ares, 21st day after the application, index 0-5 of Table 47
# Text: as §4
row,SMILES,Herbicidal effects Po
1,Cn1c(C(F)(F)F)ccc(-c2cc(C(=O)OCCBr)c(Cl)cc2F)c1=O [1-134],5

# System: Digitaria ciliaris (Di)
# Experiment: as above
# Type: in vivo
# Details: 100 g of the active ingredient per 10 ares, 21st day after the application, index 0-5 of Table 47
# Text: as §4
row,SMILES,Herbicidal effects Di
1,Cn1c(C(F)(F)F)ccc(-c2cc(C(=O)OCCBr)c(Cl)cc2F)c1=O [1-134],5

# System: common lambsquarters (Ch)
# Experiment: as above
# Type: in vivo
# Details: 100 g of the active ingredient per 10 ares, 21st day after the application, index 0-5 of Table 47
# Text: as §4
row,SMILES,Herbicidal effects Ch
1,Cn1c(C(F)(F)F)ccc(-c2cc(C(=O)OCCBr)c(Cl)cc2F)c1=O [1-134],5

# System: rice flatsedge (Ci)
# Experiment: as above
# Type: in vivo
# Details: 100 g of the active ingredient per 10 ares, 21st day after the application, index 0-5 of Table 47
# Text: as §4
row,SMILES,Herbicidal effects Ci
1,Cn1c(C(F)(F)F)ccc(-c2cc(C(=O)OCCBr)c(Cl)cc2F)c1=O [1-134],5

# System: slender amaranth (Am)
# Experiment: as above
# Type: in vivo
# Details: 100 g of the active ingredient per 10 ares, 21st day after the application, index 0-5 of Table 47
# Text: as §4
row,SMILES,Herbicidal effects Am
1,Cn1c(C(F)(F)F)ccc(-c2cc(C(=O)OCCBr)c(Cl)cc2F)c1=O [1-134],5

# System: corn (Ze)
# Experiment: Test Example 11: crop plant selectivity by upland field foliage treatment (corn), phytotoxicity
# Details: upland field foliage treatment, dose 1.6 g ai/10a, 14th day after treatment
# Procedure: (§5) (Test on Crop Plant Selectivity by Upland Field Foliage Treatment)
# (§6) In a plastic pot (surface area: 600 cm^2) filled with sand, corn (Ze), pale smartweed (Po), slender amaranth (Am), common lambsquarters (Ch) and China jute (Ab) were sown and cultured in a green house for 2 weeks. […] The plants were then cultured in a green house, and the evaluation of the herbicidal effects and phytotoxicity was conducted on the 14th day after the treatment in accordance with the standards as identified in Table 47.
row,SMILES,Phytotoxicity Ze
1,Cn1c(C(F)(F)F)ccc(-c2cc(C(=O)OCCBr)c(Cl)cc2F)c1=O [1-134],2

# System: wheat (Tr)
# Experiment: Test Example 9: crop plant selectivity by upland field foliage treatment (wheat), phytotoxicity;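 further: grade of crop injury; 5 = at least 90%; 4 = 70 to 90%; 3 = 50 to 70%; 2 = 30 to 50%; 1 = 10 to 30%; 0 = under 10%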
# Details: dose 1.6 g ai/10a, 14th day after treatment
# Summary of the method: as §1
row,SMILES,Phytotoxicity Tr
1,Cn1c(C(F)(F)F)ccc(-c2cc(C(=O)OCCBr)c(Cl)cc2F)c1=O [1-134],2

# System: pale smartweed (Po)
# Experiment: Test Example 11: crop plant selectivity by upland field foliage treatment (corn), herbicidal effects
# Type: in vivo
# Parameters: scale not given here
# Details: upland field foliage treatment (corn test), dose 1.6 g ai/10a, 14th day after treatment
# Procedure: as §5, §6
row,SMILES,Herbicidal effects Po
1,Cn1c(C(F)(F)F)ccc(-c2cc(C(=O)OCCBr)c(Cl)cc2F)c1=O [1-134],5

# System: common lambsquarters (Ch)
# Experiment: as above
# Type: in vivo
# Parameters: scale not given here
# Details: upland field foliage treatment (corn test), dose 1.6 g ai/10a, 14th day after treatment
# Procedure: as §5, §6
row,SMILES,Herbicidal effects Ch
1,Cn1c(C(F)(F)F)ccc(-c2cc(C(=O)OCCBr)c(Cl)cc2F)c1=O [1-134],5

# System: China jute (Ab)
# Experiment: as above
# Type: in vivo
# Parameters: scale not given here
# Details: upland field foliage treatment (corn test), dose 1.6 g ai/10a, 14th day after treatment
# Procedure: as §5, §6
row,SMILES,Herbicidal effects Ab
1,Cn1c(C(F)(F)F)ccc(-c2cc(C(=O)OCCBr)c(Cl)cc2F)c1=O [1-134],5

# System: slender amaranth (Am)
# Experiment: as above
# Type: in vivo
# Parameters: scale not given here
# Details: upland field foliage treatment (corn test), dose 1.6 g ai/10a, 14th day after treatment
# Procedure: as §5, §6
row,SMILES,Herbicidal effects Am
1,Cn1c(C(F)(F)F)ccc(-c2cc(C(=O)OCCBr)c(Cl)cc2F)c1=O [1-134],5

# Reference: patent publication US6472348B1, “Pyridone derivatives and herbicides” (Kumiai Chemical Industry Co., Ltd., priority 1996, dated 2002)
